Results reported in US10144737B2 (ETERNITY BIOSCIENCE INC., priority 2014, dated 2018).

How the values were obtained:
[1] = test system: TMD-8 cells; test: Cell proliferation assay (CellTiter-Glo), TMD-8 cells; assay type: cell-based; conditions: Homo sapiens, TMD8, 120 h, 5-day treatment, read-out: TMD8 cell growth (GI50 μM)
Protocol: Cell proliferation assay: TMD-8 and SU-DHL-1 cells were maintained at 37° C. in a humidified atmosphere with 5% CO2 in the recommended medium and serum concentrations. For cell proliferation assay, cells were seeded in 96-well pates at a density of 5,000 to 10,000 cells per well and cultured overnight at 37° C. in recommended medium supplemented with 5-10% FBS. On the next day, the test articles at various concentrations or vehicle control (0.5% DMSO) were added into cell culture. After 5-day treatment, the growth of cells was assayed by the CellTiter-Glo® Luminestceaent Cell Viability Assay (Promega). IC50 values were calculated using GraphPad Prism by plotting the logarithm of the concentration versus percent inhibition of cell growth as compared with the vehicle control.

[2] = molecular target: T1, Btk (Homo sapiens, UniProt Q06187); test: Btk kinase assay (ADP-Glo); assay type: biochemical; conditions: ADP-Glo Btk kinase assay kit; ATP 1.2 μM; 60 minutes at room temperature
T1 construct: purchased Promega (Madison, Wis.)
T1 sequence (Q06187 whole entry): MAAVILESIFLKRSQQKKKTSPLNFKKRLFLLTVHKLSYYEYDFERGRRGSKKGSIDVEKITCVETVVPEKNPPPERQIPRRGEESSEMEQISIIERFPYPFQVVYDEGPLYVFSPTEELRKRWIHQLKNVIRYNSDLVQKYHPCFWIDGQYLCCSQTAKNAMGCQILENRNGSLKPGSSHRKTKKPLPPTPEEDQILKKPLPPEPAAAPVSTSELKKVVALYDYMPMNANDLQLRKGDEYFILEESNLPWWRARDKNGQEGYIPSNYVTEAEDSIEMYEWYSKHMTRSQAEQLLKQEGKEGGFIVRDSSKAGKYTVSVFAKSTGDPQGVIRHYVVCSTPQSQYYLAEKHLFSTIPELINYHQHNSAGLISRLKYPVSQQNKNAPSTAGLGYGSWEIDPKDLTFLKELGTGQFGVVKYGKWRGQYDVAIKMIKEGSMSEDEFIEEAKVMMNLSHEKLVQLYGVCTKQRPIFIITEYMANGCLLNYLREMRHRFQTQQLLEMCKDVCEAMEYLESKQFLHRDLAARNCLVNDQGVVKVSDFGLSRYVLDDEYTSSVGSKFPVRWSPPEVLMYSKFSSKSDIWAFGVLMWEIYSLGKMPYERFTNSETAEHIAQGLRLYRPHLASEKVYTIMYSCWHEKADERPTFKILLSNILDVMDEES
Protocol: Btk kinase assay—The Btk kinase assay was performed using a ADP-Glo Btk kinase assay kit purchased from Promega (Madison, Wis.). The assay was conducted according to the protocols provided in the assay kit. In brief, the enzyme reaction was carried out in the kinase reaction buffer containing Btk (2 ng/μl), ATP (1.2 μM), poly GT peptide (0.3 μM), DTT (40 nM), MnCl2 (1.4 mM), and 1 xkinase buffer (included in the kit) in the presence or absence of the tested articles at various concentrations in 384-well plate at room temperature (22±1° C.) for 60 minutes. The final reaction volume for each reaction was 10 μl. Then, 4 μl of ADP-Glo reagent (included in the kit) was added into the reaction and the plate was further incubated for another 40 minutes to terminate the reaction and deplete the remaining ATP. Finally, 10 μl of the kinase detection reagent was added into each reaction to simultaneously convert ADP to ATP and allow the newly synthesized ATP to be measured by a plate-reading luminometer (Victor X5 2030 multilabel reader, PerkinElmer). IC50 value was calculated using appropriate programs in GraphPad Prism by plotting the logarithm of the concentration versus percent inhibition as compared with a vehicle (DMSO) control.

| SMILES | GI50 [1] | IC50 [2] |
| --- | --- | --- |
| C=CC(=O)N1CCN(c2ncnc3[nH]c(C#CCOc4ccccc4)cc23)CC1 [Example 1, 1-(4-(6-(3-phenoxyprop-1-yn-1-yl)-7H-pyrrolo[2,3-d]pyrimidin-4-yl)piperazin-1-yl)prop-2-en-1-one] | 0.054 µM | 0.109 µM |
| CN(C)C/C=C/C(=O)N1CCN(c2ncnc3[nH]c(C#CCOc4ccccc4)cc23)CC1 [Example 2, (E)-4-(dimethylamino)-1-(4-(6-(3-phenoxyprop-1-yn-1-yl)-7H-pyrrolo[2,3-d]pyrimidin-4-yl)piperazin-1-yl)but-2-en-1-one] | 0.034 µM | 0.0033 µM |
| CNC/C=C/C(=O)N1CCN(c2ncnc3[nH]c(C#CCOc4ccccc4)cc23)CC1 [Example 3, (E)-4-(methylamino)-1-(4-(6-(3-phenoxyprop-1-yn-1-yl)-7H-pyrrolo[2,3-d]pyrimidin-4-yl)piperazin-1-yl)but-2-en-1-one] | 2.9 µM | 0.0023 µM |
| C=CC(=O)N1CCN(c2ncnc3[nH]c(C#CCOCc4ccccc4)cc23)CC1 [Example 4, 1-(4-(6-(3-(benzyloxy)prop-1-yn-1-yl)-7H-pyrrolo[2,3-d]pyrimidin-4-yl)piperazin-1-yl)prop-2-en-1-one] | 0.157 µM | 0.06 µM |
| C=CC(=O)N1CCN(c2ncnc3[nH]c(C#CCOC)cc23)CC1 [Example 5, 1-(4-(6-(3-methoxyprop-1-yn-1-yl)-7H-pyrrolo[2,3-d]pyrimidin-4-yl)piperazin-1-yl)prop-2-en-1-one] | 1.66 µM | 0.257 µM |
| C=CC(=O)N1CCN(c2ncnc3[nH]c(C#CCOc4ccccc4)nc23)CC1 [Example 6, 1-(4-(8-(3-phenoxyprop-1-yn-1-yl)-9H-purin-6-yl)piperazin-1-yl)prop-2-en-1-one] | 0.019 µM | 0.0164 µM |
| CN(C)C/C=C/C(=O)N1CCN(c2ncnc3[nH]c(C#CCOc4ccccc4)nc23)CC1 [Example 7, (E)-4-(dimethylamino)-1-(4-(8-(3-phenoxyprop-1-yn-1-yl)-9H-purin-6-yl)piperazin-1-yl)but-2-en-1-one] | 0.141 µM | 0.003 µM |
| O=C(/C=C/CN1CCOCC1)N1CCN(c2ncnc3[nH]c(C#CCOc4ccccc4)nc23)CC1 [Example 8, (E)-4-morpholino-1-(4-(8-(3-phenoxyprop-1-yn-1-yl)-9H-purin-6-yl)piperazin-1-yl)but-2-en-1-one] | 0.357 µM | 0.332 µM |
| C=CC(=O)N1CCC(Nc2ncnc3[nH]c(C#CCOc4ccccc4)nc23)C1 (stereo not shown) [Example 9, 1-(3-((8-(3-phenoxyprop-1-yn-1-yl)-9H-purin-6-yl)amino)pyrrolidin-1-yl)prop-2-en-1-one] | 0.012 µM | 0.0026 µM |
| CN(C)C/C=C/C(=O)N1CCC(Nc2ncnc3[nH]c(C#CCOc4ccccc4)nc23)C1 (stereo not shown) [Example 10, (E)-4-(dimethylamino)-1-(3-((8-(3-phenoxyprop-1-yn-1-yl)-9H-purin-6-yl)amino)pyrrolidin-1-yl)but-2-en-1-one] | 0.171 µM | 0.0001 µM |
| O=C(/C=C/CN1CCOCC1)N1CCC(Nc2ncnc3[nH]c(C#CCOc4ccccc4)nc23)C1 (stereo not shown) [Example 11, (E)-4-morpholino-1-(3-((8-(3-phenoxyprop-1-yn-1-yl)-9H-purin-6-yl)amino)pyrrolidin-1-yl)but-2-en-1-one] | 1.17 µM | 0.06 µM |
| O=C(/C=C/CN1CCCC1)N1CCC(Nc2ncnc3[nH]c(C#CCOc4ccccc4)nc23)C1 (stereo not shown) [Example 12, (E)-1-(3-((8-(3-phenoxyprop-1-yn-1-yl)-9H-purin-6-yl)amino)pyrrolidin-1-yl)-4-(pyrrolidin-1-yl)but-2-en-1-one] | 1.3 µM | 0.0003 µM |
| O=C(/C=C/c1cccs1)N1CCC(Nc2ncnc3[nH]c(C#CCOc4ccccc4)cc23)C1 (stereo not shown) [Example 37, (E)-1-(3-((6-(3-phenoxyprop-1-yn-1-yl)-7H-pyrrolo[2,3-d]pyrimidin-4-yl)amino)pyrrolidin-1-yl)-3-(thiophen-2-yl)prop-2-en-1-one] | – | 1.18 µM |
